Data on 4 compounds can be found in US20100279976A1, “USE OF ARTEMISININ AND ITS DERIVATIVES IN CANCER THERAPY” (SHANGHAI INSTITUTES FOR BIOLOGICAL SCIENCES, CAS, priority 2009, published 2010).

For orientation: pIC50 means −log10 of the IC50, conventionally taken in molar units. One may read the IC80 as the concentration at which the effect reaches the 80% level.

pIC50: −log10 of the molar value.

One series relates to HepG2 xenograft tumors. The series is described as follows: HepG2 xenograft model in nude mice. To be noted: HepG2 xenograft, gemcitabine alone 80 mg/kg i.p. days 7, 11, 15. The series is classed as in vivo. How it is done: Female athymic nude mice (nu/nu; 4-6 wk of age) may be obtained from Shanghai Slac Laboratory Animal Co. Ltd. All animals may be fed with commercial diet and water ad libitum. The human HCC xenograft models in mice may be as follows. Briefly, HepG2 and Hep3B cells may be re-suspended in serum-free DMEM with Matrigel basement membrane matrix at a 5:1 ratio. The cell suspension may then be injected (7×10^6 cells; total volume, 0.2 mL) into the left inguinal area of the BALB/c nude mice. The animals may be monitored for activity and physical condition everyday, and the determination of body weight and measurement of tumor mass may be done every 3 d. Tumor mass may be determined by caliper measurement in two perpendicular diameters of the implant and calculated using the formula ½a×b^2, where a stands for the long diameter and b is the short diameter. The animal use and care protocol is approved by the Institutional Review Board of the Institute for Nutritional Sciences, Chinese Academy of Sciences.
Nude mice bearing HepG2 and Hep3B xenografts, randomly divided into various treatment and control groups (five mice per group), may be treated orally with either ART or DHA suspended in 5% sesame oil+95% saline, at a dose of 50 or 100 mg/kg/d, or a combination of ART or DHA with gemcitabine or with saline (as controls). In the mice receiving combination therapy, 80 mg/kg gemcitabine, representing one fifth of the reported most tolerated dose in mice, may be administered i.p. on days 7, 11, and 15 to avoid possible side effects and to illustrate potential chemo-sensitization effects in this combination regimen.

Another series deals with HCC. Particulars: gemcitabine monotherapy, HCC patients; cited from earlier work.
The subject of series [1] is A2780 ovarian carcinoma cells. The series is described as follows: MTT cell viability assay, A2780. The class given is cell-based. To be noted: Homo sapiens, A2780, 48 hrs. The source says: (§1) Human ovarian IOSE144 (immortalized non-tumorigenic human ovarian surface epithelial cells) and ovarian carcinoma (A2780 and OVCAR-3) cells that may be obtained from the American Type Culture Collection (ATCC, Manassas, Va.) are gifts from Dr. Jing Fang (Institute for Nutritional Sciences, Shanghai, China). All cells may be cultured according to the ATCC instructions. The compounds (ARS, ART, ARM and DHA) may be dissolved in DMSO (<0.1%, final concentration).
(§2) The effects of ART derivatives on the viability of the aforementioned cells may be determined using the MTT assay. Briefly, 2,000 cells per well were plated in triplicate in 96-well plates. After a 24-h incubation, the cells may be treated with varying concentrations of ART derivatives (0, 1, 5, 10, 25, 50, and 100 μmol/L) for 48 h. The MTT assay may be performed according to the manufacture's instruction and the resultant formazan crystals may be dissolved in DMSO (100 μL). The absorbance may be then recorded at 540 nm. The effects of ART derivatives on cell viability may be assessed by comparing the percent cell viability of the treated cells with the vehicle (DMSO)-treated control cells, which may be arbitrarily assigned at 100% viability. The experiment may be repeated thrice under the same conditions.

The subject of series [2] is Hep3B hepatoma cells (p53 null). Briefly: MTT cell viability assay, Hep3B. The series is classed as cell-based. To be noted: Homo sapiens, 48 h. As for the experimental part: as §2
For orientation: Tetrazolium dyes change colour on reduction, which living cells bring about.

Series [3] deals with HepG2 hepatoma cells (p53 wild-type). The series is described as follows: MTT cell viability assay, HepG2. The class given is cell-based. Particulars: Homo sapiens, 48 h. How it is done:
as §2

Series [4] has as its system OVCAR-3 ovarian carcinoma cells. Briefly: MTT cell viability assay, OVCAR-3. The class given is cell-based. To be noted: Homo sapiens, OVCAR-3, 48 hrs.
Text: as §1, §2

Series [5] relates to 7702 normal human liver cells. The series is described as follows: MTT cell viability assay, normal liver cells. Particulars: Homo sapiens, 7702 cells, 48 h; for IC20: read-out: IC20 (concentration that reduces growth by 20%). The series is classed as cell-based. How it is done:
as §2

In series [6] the test system is Huh-7 hepatoma cells (p53 mutant). Briefly: MTT cell viability assay, Huh-7. Particulars: Homo sapiens, Huh-7 (p53 mutant), 48 h. The series is classed as cell-based. How it is done:
as §2

In series [7] the test system is IOSE144 immortalized non-tumorigenic ovarian surface epithelial cells. Briefly: MTT cell viability assay, IOSE144. The series is classed as cell-based. To be noted: Homo sapiens, IOSE-144, IOSE144, 48 hrs.
Text: as §1, §2

Series [8] concerns BEL-7404 hepatoma cells (p53 mutant). The series is described as follows: MTT cell viability assay, BEL-7404. The class given is cell-based. Particulars: Homo sapiens, BEL-7404 (p53 mutant), 48 h. How it is done: as §2
Series [9] relates to four hepatoma cell lines (HepG2, Hep3B, Huh-7, BEL-7404). Briefly: MTT assay, mean over four hepatoma cell lines. The class given is cell-based. To be noted: Homo sapiens, mean of HepG2, Hep3B, read-out: overall mean IC50 in the four hepatoma cell lines. As for the experimental part: as §2
The test system of a further series is OVCAR-3 cells. Briefly: Annexin V-FITC apoptosis assay, OVCAR-3. The class given is cell-based, human. To be noted: OVCAR-3, 24 hrs; DHA 1 μM, CBP 500 μM, alone or combined. As for the experimental part:
ART- and DHA-induced apoptosis alone or in combination with gemcitabine in HepG2 and Hep3B cells or in combination with carboplatin in ovarian cancer cells may be determined by flow cytometry using the Annexin V-FITC Apoptosis Detection kit following the manufacturer's instructions. […] The cells may then be harvested, washed in PBS, and incubated with Annexin V and propidium iodide for staining in binding buffer at room temperature for 10 min in the dark. The stained cells may be analyzed using the FACSAria instrument.

Another series concerns A2780 xenograft tumors. The series is classed as in vivo. How it is done:
Four to six week old female athymic nude mice (BALB/c, nu/nu) may be purchased from Shanghai Experimental Animal Center (Shanghai, China). Animal studies are approved by the Institute for Nutritional Sciences. The tumor xenograft model may be established as follows. […] Aliquots of cells (˜5×10^6 cells/0.2 ml) may be injected subcutaneously into the left inguinal area of the mice. The tumor growth and body weight of the mice may be monitored every other day. Tumor mass may be determined. Mice bearing palpable tumors (˜70 mg) may be randomly divided into treatment and control groups n=5 mice/group). CBP may be dissolved in saline, and DHA may be dissolved in cremophor EL:ethanol:saline (5:5:90, v/v/v). DHA may be administered via i.p. injection at doses of 10 and 25 mg/kg/5 days/week for 3 weeks) alone or combined with CBP (at a single dose of 120 mg/kg, once on day 0). The control group receives saline only. Mice may be killed on day 18. Tumors may be carefully excised, trimmed of extraneous fat or connective tissue, and homogenized in RIPA buffer (100 mg tumor tissue/1 ml RIPA) and prepared for immunoblotting analysis as described above.

Another series has as its system OVCAR-3 xenograft tumors. Briefly: OVCAR-3 xenograft model in nude mice. The series is classed as in vivo. Particulars: CBP only, single dose 120 mg/kg on day 0. As for the experimental part:
Four to six week old female athymic nude mice (BALB/c, nu/nu) may be purchased from Shanghai Experimental Animal Center (Shanghai, China). Animal studies are approved by the Institute for Nutritional Sciences. The tumor xenograft model may be established as follows. Briefly, A2780 and OVCAR-3 cells may be harvested and re-suspended in serum-free RPMI 1640 medium containing 20% (v/v) Matrigel (BD Biosciences, Bedford, Mass., USA). Aliquots of cells (˜5×10^6 cells/0.2 ml) may be injected subcutaneously into the left inguinal area of the mice. The tumor growth and body weight of the mice may be monitored every other day. Tumor mass may be determined. Mice bearing palpable tumors (˜70 mg) may be randomly divided into treatment and control groups n=5 mice/group). CBP may be dissolved in saline, and DHA may be dissolved in cremophor EL:ethanol:saline (5:5:90, v/v/v). DHA may be administered via i.p. injection at doses of 10 and 25 mg/kg/5 days/week for 3 weeks) alone or combined with CBP (at a single dose of 120 mg/kg, once on day 0). The control group receives saline only. Mice may be killed on day 18. Tumors may be carefully excised, trimmed of extraneous fat or connective tissue, and homogenized in RIPA buffer (100 mg tumor tissue/1 ml RIPA) and prepared for immunoblotting analysis as described above.

For the compound `Nc1ccn([C@@H]2O[C@H](CO)[C@@H](O)C2(F)F)c(=O)n1` [gemcitabine], the tumor growth inhibition with HepG2 xenograft tumors came out at 34.9%. Further, the median survival time entry with HCC is on record as “up to 34 weeks”.
As to `CO[C@H]1O[C@@H]2O[C@@]3(C)CC[C@H]4[C@H](C)CC[C@@H]([C@H]1C)[C@@]24OO3` [ARM, artemether], the IC20 was 2.08 µM in [1]; 2.4 µM in [2]; 2.6 µM in [3]; 2.08 µM in series [4]; 7.9 µM in series [5]; 1.2 µM in [6]. For the same compound, the IC20 was determined as 98 µM in [7] and 2.4 µM in series [8]. In addition, the pIC50 in series [1] was 4.27; in series [2] it was 4.29; in series [3] it was 4.26; in [4], 4.41; in series [5] it was 3.31; in [6], 4.50. Moreover, the pIC50 in series [7] is < 3.30; in series [8], 4.50; in series [9], 4.37. For the same compound, the IC80 in [1], in series [2], in series [3], in [4], in [5] and in series [6] was > 500 µM each time. The IC80 in series [7] and in series [8] was > 500 µM each time.
With `C[C@H]1[C@H](OC(=O)CCC(=O)O)O[C@@H]2O[C@@]3(C)CC[C@H]4[C@H](C)CC[C@@H]1[C@@]24OO3` [ARS, artesunate], the IC20 in series [1] was determined as 7.68 µM; in series [2], 1.5 µM; in series [3] it was 1.3 µM; in series [4], 3.93 µM; in series [5] it was 7.3 µM; in series [6], 0.6 µM. Further, the IC20 in series [7] is > 500 µM; in [8], 1 µM. In addition, the pIC50 in series [1] was < 3.30; in series [2] it was 4.40; in [3] it was 4.69; in [4] it was 3.47; in series [5], < 3.30; in series [6], 5.04. Besides, the results for the pIC50 in [7], in [8] and in series [9] were < 3.30, 4.82 and 4.68, respectively. The concentration for an effect of 80% (IC80) is > 500 µM in [1]; > 500 µM in series [2]; 338 µM in series [3]; > 500 µM in series [4]; > 500 µM in series [5]; 146 µM in series [6]. The IC80 is > 500 µM in [7] and 215 µM in series [8].
As for `N.N.O=C([O-])C1(C(=O)[O-])CCC1.[Pt+2]` [CBP, carboplatin], the “rate of apoptosis (control regarded as 100%)” value in the series on OVCAR-3 cells was 528%. The tumor growth inhibition stood at 56% in the series with A2780 xenograft tumors (A2780 xenograft, CBP only, single dose 120 mg/kg on day 0) and 46% in the series with OVCAR-3 xenograft tumors. Besides, in the series with A2780 xenograft tumors (mice bearing A2780 or OVCAR-3 xenografts), the “host toxicity based on observation of body weight” value is reported as “slight weight loss”.
